Source: ChEMBL document CHEMBL1139538, “ERbeta ligands. 3. Exploiting two binding orientations of the 2-phenylnaphthalene scaffold to achieve ERbeta selectivity” (J Med Chem, 2005)

What was measured:
[1] = molecular target: T1, Estrogen receptor (Homo sapiens, UniProt P03372)
T1 sequence (P03372 whole entry): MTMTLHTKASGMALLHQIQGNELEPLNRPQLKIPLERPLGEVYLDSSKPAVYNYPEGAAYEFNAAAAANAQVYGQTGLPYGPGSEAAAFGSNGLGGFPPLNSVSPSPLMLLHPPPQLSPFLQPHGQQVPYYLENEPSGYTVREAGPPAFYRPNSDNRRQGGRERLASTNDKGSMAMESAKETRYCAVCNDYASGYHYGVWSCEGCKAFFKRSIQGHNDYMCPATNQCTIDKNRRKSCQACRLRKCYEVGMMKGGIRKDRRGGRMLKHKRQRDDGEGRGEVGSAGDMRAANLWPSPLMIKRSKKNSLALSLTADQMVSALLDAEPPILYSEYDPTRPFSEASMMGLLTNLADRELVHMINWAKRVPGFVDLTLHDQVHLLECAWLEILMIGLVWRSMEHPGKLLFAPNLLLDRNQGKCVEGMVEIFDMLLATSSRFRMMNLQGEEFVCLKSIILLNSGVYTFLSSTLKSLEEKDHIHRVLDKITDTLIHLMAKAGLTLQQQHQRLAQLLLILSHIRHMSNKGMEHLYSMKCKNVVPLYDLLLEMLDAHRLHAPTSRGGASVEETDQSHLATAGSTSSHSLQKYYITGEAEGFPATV
Description: Inhibition of [3H]17-beta-estradiol binding to human estrogen receptor alpha expressed in Escherichia coli

[2] = molecular target: Estrogen receptor beta (Homo sapiens, UniProt Q92731)
Sequence of Estrogen receptor beta (Q92731 whole entry): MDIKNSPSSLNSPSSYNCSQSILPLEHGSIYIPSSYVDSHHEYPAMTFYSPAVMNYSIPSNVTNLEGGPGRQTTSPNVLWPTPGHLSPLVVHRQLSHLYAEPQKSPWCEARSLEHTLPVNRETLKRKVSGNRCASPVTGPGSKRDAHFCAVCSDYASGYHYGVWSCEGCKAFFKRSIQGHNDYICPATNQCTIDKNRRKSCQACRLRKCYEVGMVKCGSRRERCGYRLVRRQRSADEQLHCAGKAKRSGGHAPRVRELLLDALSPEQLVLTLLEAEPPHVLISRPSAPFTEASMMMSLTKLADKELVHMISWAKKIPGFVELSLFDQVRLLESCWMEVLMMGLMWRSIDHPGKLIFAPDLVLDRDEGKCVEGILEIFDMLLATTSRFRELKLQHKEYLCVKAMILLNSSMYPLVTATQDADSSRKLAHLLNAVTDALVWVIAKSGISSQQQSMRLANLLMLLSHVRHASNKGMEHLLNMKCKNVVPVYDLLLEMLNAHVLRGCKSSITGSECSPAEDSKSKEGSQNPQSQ

[3] = molecular target: T2, Estrogen receptor (Rattus norvegicus) (UniProt P06211+Q62986)
Description: Effect on uterine weight in immature rats in combination with 17R-ethinyl-17-beta-estradiol after 3 days

[4] = molecular target: T2, Estrogen receptor (Rattus norvegicus); remark: listed apart in the source
Description: Effect on uterine weight of immature rats at 2 mg/rat/day dose after 3 days

[5] = system: Rattus norvegicus; assay: Effect of oral administration of 1 mg/kg compound on colon histology (haemoglobin) in HLA-B27 transgenic rats; format: functional
[6] = system: Rattus norvegicus; assay: Effect of oral administration of 10 mg/kg compound on colon histology (haemoglobin) in HLA-B27 transgenic rats; format: functional

Structure (SMILES): N#Cc1cc(-c2ccc(O)c(F)c2)cc2ccc(O)c(F)c12
- IC50 [1]: 0.312 µM
- IC50 [2]: 0.0056 µM

Structure (SMILES): Oc1ccc(-c2ccc3c(F)c(O)ccc3c2)cc1
- IC50 [1]: 0.077 µM
- IC50 [2]: 0.007 µM

Structure (SMILES): N#Cc1cc(-c2ccc(O)c(F)c2)cc2ccc(O)cc12
- Weight [3]: 81.9 mg
- Weight [4]: 23.3 mg
- Activity [5]: 0.45 mg/mL
- Activity [6]: 0.35 mg/mL

Structure (SMILES): Oc1ccc(-c2ccc3c(O)cccc3c2)cc1
- IC50 [2]: 0.0058 µM

Structure (SMILES): Oc1ccc2cc(-c3ccccc3O)ccc2c1
- IC50 [1]: > 5 µM
- IC50 [2]: 2 µM

Structure (SMILES): N#Cc1cc(O)c(Cl)c2ccc(-c3ccc(O)cc3)cc12
- IC50 [1]: 0.098 µM
- IC50 [2]: 0.003 µM

Structure (SMILES): Oc1ccc(-c2ccc3cc(O)ccc3c2)cc1
- IC50 [1]: 0.211 µM
- IC50 [2]: 0.0163 µM

Structure (SMILES): Oc1cccc(-c2ccc3cc(O)ccc3c2)c1
- IC50 [2]: 0.03 µM

Structure (SMILES): C#Cc1cc(O)cc2ccc(-c3ccc(O)c(F)c3)cc12
- IC50 [1]: 0.073 µM
- IC50 [2]: 0.0012 µM

Structure (SMILES): N#Cc1cc(O)cc2ccc(-c3ccc(O)cc3)cc12
- IC50 [1]: 0.084 µM
- IC50 [2]: 0.002 µM

Structure (SMILES): N#Cc1cc(-c2cc(F)c(O)cc2F)cc2ccc(O)cc12
- IC50 [1]: 0.186 µM
- IC50 [2]: 0.0069 µM

Structure (SMILES): Oc1ccc(-c2ccc3ccccc3c2)cc1
- IC50 [1]: 0.638 µM

Structure (SMILES): O=Cc1cc(-c2ccc(O)c(F)c2)cc2ccc(O)cc12
- IC50 [1]: 0.231 µM
- IC50 [2]: 0.0034 µM

Structure (SMILES): Oc1cc(F)c(-c2ccc3c(Cl)c(O)ccc3c2)cc1F
- IC50 [1]: 0.118 µM
- IC50 [2]: 0.0085 µM

Structure (SMILES): O=Cc1cc(O)cc2ccc(-c3ccc(O)c(F)c3)cc12
- IC50 [1]: 0.073 µM
- IC50 [2]: 0.0011 µM

Structure (SMILES): Oc1cc(F)c(-c2ccc3c(Cl)c(O)ccc3c2)c(F)c1
- IC50 [1]: 0.035 µM
- IC50 [2]: 0.0034 µM

Structure (SMILES): C#Cc1cc(-c2ccc(O)c(F)c2)cc2ccc(O)cc12
- IC50 [1]: 0.247 µM
- IC50 [2]: 0.0063 µM

Structure (SMILES): C=Cc1cc(-c2ccc(O)c(F)c2)cc2ccc(O)cc12
- IC50 [1]: 0.254 µM
- IC50 [2]: 0.0044 µM

Structure (SMILES): Oc1ccc2cc(-c3ccc(O)c(F)c3)cc(F)c2c1
- IC50 [1]: 0.021 µM
- IC50 [2]: 0.0015 µM

Structure (SMILES): Oc1cc(F)c(-c2ccc3cc(O)ccc3c2)c(F)c1
- IC50 [1]: 0.0103 µM
- IC50 [2]: 0.0023 µM

Structure (SMILES): Oc1ccc2cc(-c3ccc(O)c(F)c3)ccc2c1
- IC50 [2]: 0.005 µM

Structure (SMILES): Oc1ccc2cc(-c3cc(F)c(O)cc3F)ccc2c1
- IC50 [1]: 0.027 µM
- IC50 [2]: 0.0028 µM

Structure (SMILES): N#Cc1cc(O)c(C#N)c2ccc(-c3ccc(O)c(F)c3)cc12
- IC50 [1]: 0.877 µM
- IC50 [2]: 0.028 µM

Structure (SMILES): COc1cc(O)ccc1-c1ccc2cc(O)ccc2c1
- IC50 [1]: 0.174 µM

Structure (SMILES): CCc1cc(O)cc2ccc(-c3ccc(O)c(F)c3)cc12
- IC50 [1]: 0.113 µM
- IC50 [2]: 0.0025 µM

Structure (SMILES): Cc1cc(O)ccc1-c1ccc2cc(O)ccc2c1
- IC50 [1]: 0.04 µM
- IC50 [2]: 0.01 µM

Structure (SMILES): Oc1ccc(-c2ccc3c(Cl)c(O)ccc3c2)cc1
- IC50 [1]: 0.091 µM

Structure (SMILES): Oc1ccc(-c2ccc3cc(O)ccc3c2)c(Cl)c1
- IC50 [2]: 0.0014 µM

Structure (SMILES): Oc1ccc(-c2cc(Cl)c3cc(O)ccc3c2)cc1
- IC50 [1]: 0.03 µM
- IC50 [2]: 0.0023 µM

Structure (SMILES): N#Cc1cc(-c2c(F)cc(O)cc2F)cc2ccc(O)cc12
- IC50 [1]: 0.045 µM
- IC50 [2]: 0.0022 µM

Structure (SMILES): N#Cc1cc(O)c(Br)c2ccc(-c3ccc(O)c(F)c3)cc12
- IC50 [1]: 0.116 µM
- IC50 [2]: 0.0045 µM

Structure (SMILES): Oc1ccc2ccc(-c3ccccc3)cc2c1
- IC50 [1]: 3.4 µM

Structure (SMILES): Cc1c(O)cc(C#N)c2cc(-c3ccc(O)c(F)c3)ccc12
- IC50 [1]: 0.406 µM
- IC50 [2]: 0.006 µM

Structure (SMILES): N#Cc1cc(O)c(Cl)c2ccc(-c3ccc(O)c(F)c3)cc12
- IC50 [1]: 0.055 µM
- IC50 [2]: 0.0026 µM

Structure (SMILES): Oc1ccc(-c2ccc3c(Cl)c(O)ccc3c2)c(Cl)c1
- IC50 [1]: 0.036 µM
- IC50 [2]: 0.0033 µM

Structure (SMILES): Oc1ccc(-c2ccc3c(-c4ccccc4)c(O)ccc3c2)cc1
- IC50 [1]: 1.23 µM
- IC50 [2]: 0.748 µM

Structure (SMILES): Oc1ccc2cc(-c3cc(F)c(O)c(F)c3)ccc2c1Cl
- IC50 [2]: 0.0106 µM

Structure (SMILES): N#Cc1cc(-c2ccc(O)cc2F)cc2ccc(O)cc12
- IC50 [1]: 0.026 µM
- IC50 [2]: 0.0005 µM

Structure (SMILES): Oc1ccc(-c2ccc3cc(O)ccc3c2)c(F)c1
- IC50 [1]: 0.024 µM
- IC50 [2]: 0.002 µM

Structure (SMILES): Oc1ccc(-c2ccc3ccc(O)cc3c2)cc1
- IC50 [1]: 0.442 µM
- IC50 [2]: 0.044 µM

Structure (SMILES): Oc1ccc(-c2ccc3c(Cl)c(O)ccc3c2)c(F)c1
- IC50 [1]: 0.058 µM
- IC50 [2]: 0.0012 µM

Structure (SMILES): Oc1cccc(-c2ccc3c(O)cccc3c2)c1
- IC50 [1]: 1.45 µM
- IC50 [2]: 0.205 µM

Structure (SMILES): O=[N+]([O-])c1c(O)ccc2cc(-c3ccc(O)cc3)ccc12
- IC50 [1]: 0.709 µM
- IC50 [2]: 0.199 µM

Structure (SMILES): Oc1ccc(-c2ccc3c(Cl)c(O)ccc3c2)cc1F
- IC50 [2]: 0.004 µM

Structure (SMILES): CC#Cc1cc(O)cc2ccc(-c3ccc(O)c(F)c3)cc12
- IC50 [1]: 0.18 µM
- IC50 [2]: 0.0055 µM

Structure (SMILES): Oc1ccc(-c2cc(F)c3cc(O)ccc3c2)cc1
- IC50 [1]: 0.022 µM
- IC50 [2]: 0.0016 µM

Structure (SMILES): C=Cc1cc(O)cc2ccc(-c3ccc(O)c(F)c3)cc12
- IC50 [1]: 0.527 µM
- IC50 [2]: 0.0073 µM

Structure (SMILES): Oc1cccc(-c2ccc3ccc(O)cc3c2)c1
- IC50 [1]: 2.64 µM
- IC50 [2]: 0.566 µM

Structure (SMILES): N#Cc1cc(-c2ccc(O)cc2)cc2ccc(O)c(Br)c12
- IC50 [1]: 0.131 µM
- IC50 [2]: 0.012 µM

Structure (SMILES): Oc1ccc(-c2cc(Cl)c3c(Cl)c(O)ccc3c2)cc1
- IC50 [1]: 0.043 µM
- IC50 [2]: 0.009 µM

Structure (SMILES): CC#Cc1cc(-c2ccc(O)c(F)c2)cc2ccc(O)cc12
- IC50 [1]: 0.343 µM
- IC50 [2]: 0.01 µM

Structure (SMILES): N#Cc1cc(-c2ccc(O)cc2)cc2ccc(O)c(Cl)c12
- IC50 [1]: 0.109 µM
- IC50 [2]: 0.006 µM

Structure (SMILES): CCc1cc(-c2ccc(O)c(F)c2)cc2ccc(O)cc12
- IC50 [1]: 0.235 µM
- IC50 [2]: 0.0024 µM

Structure (SMILES): Oc1ccc(-c2cc(F)c3c(Cl)c(O)ccc3c2)cc1
- IC50 [1]: 0.04 µM
- IC50 [2]: 0.0011 µM

Structure (SMILES): Oc1ccc2cc(-c3ccccc3)ccc2c1
- IC50 [1]: 1.34 µM
- IC50 [2]: 0.374 µM

Structure (SMILES): Oc1ccc(-c2ccc3c(Br)c(O)ccc3c2)cc1
- IC50 [1]: 0.266 µM
- IC50 [2]: 0.013 µM

Structure (SMILES): N#Cc1cc(O)cc2ccc(-c3ccc(O)c(F)c3)cc12
- IC50 [1]: 0.096 µM
- IC50 [2]: 0.0021 µM

Structure (SMILES): Oc1ccc2cc(-c3ccc(O)c(Cl)c3)ccc2c1
- IC50 [1]: 0.107 µM
- IC50 [2]: 0.011 µM

Structure (SMILES): Cc1cc(O)ccc1-c1ccc2c(Cl)c(O)ccc2c1
- IC50 [1]: 0.04 µM

Structure (SMILES): Oc1ccc2cc(-c3cc(F)c(O)c(F)c3)ccc2c1
- IC50 [2]: 0.0084 µM
